# In patent US10426751B2, “Allosteric activators for treatment of phenylketonuria” (MCMASTER UNIVERSITY, priority 2015, dated 2019):
# Key:
# PAH = target: T1, PAH (Homo sapiens, UniProt P00439); conditions: read-out: Ki (weak competitive inhibitor to PAH); cited from earlier work
# T1 sequence (P00439 1-452): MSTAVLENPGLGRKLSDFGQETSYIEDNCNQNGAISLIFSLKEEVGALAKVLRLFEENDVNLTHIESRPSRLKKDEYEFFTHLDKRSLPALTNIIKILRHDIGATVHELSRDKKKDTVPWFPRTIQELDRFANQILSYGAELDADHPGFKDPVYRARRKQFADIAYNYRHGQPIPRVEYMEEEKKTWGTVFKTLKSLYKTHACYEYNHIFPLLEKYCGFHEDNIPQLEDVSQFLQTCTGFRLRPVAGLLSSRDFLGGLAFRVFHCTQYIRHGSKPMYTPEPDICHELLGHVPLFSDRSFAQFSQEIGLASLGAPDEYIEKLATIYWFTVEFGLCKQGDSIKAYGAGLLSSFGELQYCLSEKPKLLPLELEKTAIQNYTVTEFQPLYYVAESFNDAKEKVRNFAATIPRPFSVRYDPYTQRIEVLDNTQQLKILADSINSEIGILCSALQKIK
# WT-PAH [1] = target: T2, WT-PAH (Homo sapiens, UniProt P00439); assay: Chaperone (refolding) assay: PAH activity after dilution from 6.0 M to 0.5 M GndCl; assay type: biochemical; conditions: ligand 20 μM
# T2 construct: made in house; the paragraph itself says 'eukaryotic cell cultures' (pMAL vector, Martinez laboratory, University of Bergen)
# T2 sequence (P00439 1-452): T1 sequence (P00439 1-452)
# Procedure: For instance, a recovery of 50% of residual enzyme activity was achieved without ligand when PAH was incubated in 8.0 M urea after its dilution to 0.5 M urea to trigger protein refolding. In order to further reduce enzyme reversibility, the recovery of PAH activity was subsequently assessed when it was incubated using 6.0 M GndCl for 10 min and subsequently diluted to 0.5 M GndCl in the presence or absence of screen-positive ligands (20 μM) in enzyme reaction buffer with PAH activity measurements performed by CE as described previously. […] Two lead compounds and several analogs of SA were subsequently tested using two different mutants of PAH (I65T and R261Q) without chemical denaturants after the two-tiered screening.
# WT-PAH [2] = target: T2, WT-PAH; assay: Primary screen (READ): ligand-induced stabilization of PAH activity in 8 M urea, Tyr formation by CE-UV; assay type: biochemical; conditions: 8 M urea, ligand 20 μM; ligand-free enzyme (7±0.5) %
# Procedure: Tetrameric human phenylalanine hydroxylase (PAH) enzyme kinetic assays were performed off-line under standardized conditions prior to quantification of Tyr formation by CE with UV detection. Enzyme assays were performed by first mixing together Phe (1 mM), catalase (100 nM) and PAH (0.25 μM/subunit) in a reaction buffer (20 mM HEPES and 200 mM NaCl, pH 7.0) that were equilibrated at 25° C. for 4 min. Then, ferrous (Fe^2+) ammonium sulfate (100 μM) was added to the solution for 1 min and the reaction was subsequently initiated by addition of BH4 ([…]) with DTT (5 mM) using a total volume of 100 μL. The reaction mixture was then vortexed for 60 s followed by sonication for 2 min prior to centrifugation for 10 s at 4 g and storage in a refrigerator (+4° C.). An aliquot (20 μL) was withdrawn from the quenched enzyme reaction and placed in a micro vial containing Me-Tyr as IS (100 μM) prior to CE analysis. The stability of the quenched enzyme reaction was confirmed by intermittent analysis of PAH activity over 6 h at room temperature, and no significant changes in the Tyr/IS or Phe/Tyr response ratio were measured. Enzymatic reactions were performed for both WT-PAH and two PAH mutants by pre-equilibrating each ligand for 10 min prior to addition of ferrous ion and BH4/DDT as described in enzyme reaction protocol in order to assess for ligand-induced PAH inhibition or activation.
# Unlike thermal stability assays that can induce protein aggregation, chemical denaturants are more suitable as perturbants to promote unfolding and enzyme inactivation while solubilizing multimeric proteins. In this context, restoration of enzyme activity upon denaturation (READ) was first introduced to characterize PCs that stabilize yet enhance the activity of a lysosomal enzyme, β-glucocerebrosidase (GCase). Herein, READ was modified, further optimized and validated for primary screening of PCs for the cytosolic enzyme (PAH) using a chemical library containing structurally unique compounds with drug-like activity. For instance, the primary screen was used to measure ligand-induced stabilization of PAH by extrinsic small molecules that impart greater resistance to urea unfolding as compared to ligand-free apo-enzyme conditions. PAH activity was first examined as a function of urea concentration (0 to 8 M) and pre-equilibration time (10 min to 2 hr) in order to determine optimum conditions where residual enzyme activity was largely attenuated below 10% due to protein unfolding. Protein unfolding was performed in triplicate offline with the enzyme reaction buffer (20 mM HEPES and 200 mM NaCl, pH 7.0) using tetrameric human PAH (1 μM and/or 0.1 μM) or mutant PAH (1 μM and/or 0.1 μM) incubated 10 min in 0 M or 8 M urea in the presence or absence of ligand (20 μM). Dose-response studies (0, 2.0 and 20 μM) were subsequently performed in triplicate on screen-positive compounds using re-synthesized ligands in order to further validate initial screen results. In all cases, quenched enzyme reactions were processed as described previously prior to CE analysis. PAH activity measurements based on Tyr formation at 8M urea with the presence or absence of PC were normalized to 0 M urea for each aliquot enzyme reaction to minimize long-term variation, which also enables direct comparison of the ligand-induced stabilization activity under denaturing conditions (8M urea) while confirming inhibition and activation effects for ligands under native conditions (0 M urea).
Structure (SMILES),Ki (PAH) [µM],increase in WT-PAH activity after refolding relative to ligand-free apo-PAH (WT-PAH [1]),PAH residual activity (% of WT-PAH) (WT-PAH [2]) [%]
"Cc1ccnc(-n2c(=S)[nH]c3sc(C)c(C)c3c2=O)c1 [compound IV, 5,6-dimethyl-3-(4-methyl-2-pyridinyl)-2-thioxo-2,3-dihydrothieno[2,3-d] pyrimidin-4(1H)-one]",200,~1.5 fold,9
"Nc1c(-c2ccc3ccccc3n2)c2ccc([N+](=O)[O-])cc2c(=O)n1Cc1ccccc1 [compound III, 3-amino-2-benzyl-7-nitro-4-(2-quinolyl)-1,2-dihydroisoquinolin-1-one]",,about 5 fold,19
